Assay [1] deals with Bradyrhizobium oligotrophicum ECU1212 resting cells. Description: Asymmetric oxidation of thioethers by whole resting cells. To be noted: substrate 0.1 g/L, catalyst loading 10 g/L, 30° C., 180 rpm. The assay is classed as cell-based. The method, then:
Optionally, resting cells harvested from the culture of Bradyrhizobium oligotrophicum ECU1212 are used to asymmetrically catalyze the oxidation of lansoprazole thioether to prepared (R)-lansoprazole under the conditions that the thioether substrate concentration is 0.1 g/L, the catalyst loading is 10 g/L, and the reaction is carried out at 30° C. under stirring at 180 rpm. The conversion rate of lansoprazole thioether can be up to 80%, and the optical purity can be up to 99% ee(R). it can be seen that the Bradyrhizobium oligotrophicum ECU1212 comprises functional enzyme(s) which serve to asymmetrically catalyze the oxidation and have a high catalytic conversion rate. Thus, it can solve the problem that the conventional bio-catalysts have low conversion rate in the asymmetric catalytic oxidation process. […]
To 100 ml Tris-HCl buffer (100 mmol/L, pH 9.0) was added 1 g of Bradyrhizobium oligotrophicum ECU1212 lyophilized cells (lyophilized cells prepared in accordance with Example 2), and thioanisole and methanol were added to a final concentration of 37 g/L, 10% (v/v). […] Then, the residue was dissolved in 0.5 ml isopropanol, and the solution was analyzed in accordance with the method of Example 7 for the conversion of reaction and the ee value of product. […]

The subject of assay [2] is Recombinant BoTEMO. The experiment in a line: Asymmetric oxidation of thioethers by recombinant BoTEMO crude enzyme with glucose dehydrogenase recycling. The assay is classed as biochemical, Bradyrhizobium oligotrophicum ECU1212. The note with it: 0.2 g crude enzyme powders in 10 ml, 2 g/L substrate, 25° C., 24 h. The method, then:
The analysis is carried out with a high performance liquid chromatograph (HPLC) under the conditions of: a chiral OD-H column ([…], 5 μm particle size, Daicel), a mobile phase of n-hexane:isopropanol=93:7, a flow rate of 1 ml/min, and UV detection at 254 nm; or an AS-H column (250 mm×4.6 mm, 5 μm particle size, Daicel), a mobile phase of n-hexane:isopropanol=55:45, a flow rate of 0.5 mL/min, and UV detection at 254 nm.
To 0.5 ml potassium phosphate buffer (100 mmol/L, pH 9.0) was added 100 μL of crude enzyme solution of BoTEMO (the crude enzyme solution in accordance with the method of Example 5) and a crude enzyme solution of glucose dehydrogenase, and thioanisole, methanol, NADP^+ and glucose were added to the final concentration of 2 mmol/L, 10% (v/v), 0.2 mmol/L and 3.6 g/L, respectively. At 25° C. and 1000 rpm, the mixture was shaken for 1 h. After completion of reaction, 0.6 ml of ethyl acetate was added for extraction. The extract was dried over anhydrous sodium sulfate, and evaporated to remove the solvent. Then, the residue was dissolved in 0.5 ml of isopropanol. The mixture was analyzed in accordance with the method of Example 7 for measure the conversion of reaction and the ee value of product. The conversion of reaction was above 99%, and the ee value of product was above 99% (S).
To 0.5 ml of potassium phosphate buffer (100 mmol/L, pH 9.0) was added 100 μL crude enzyme solution of BoTEMO (the crude enzyme solution prepared in accordance with the method of Example 5) and a crude enzyme solution of glucose dehydrogenase, and omeprazole thioether, methanol, NADP^+ and glucose were added to the final concentrations of 0.2 mmol/L, 10% (v/v), 0.2 mmol/L and 3.6 g/L, respectively. At 25° C. and 1000 rpm, the mixture was shaken for 1 h. After completion of reaction, 0.6 ml of ethyl acetate was added for extraction. […] Then, the residue was dissolved in 0.5 ml isopropanol, and the solution was analyzed in accordance with the method of Example 7 for measuring the conversion of reaction and the ee value of product. […]
To 10 ml of potassium phosphate buffer (100 mmol/L, pH 9.0) was added 0.1 g of lyophilized crude enzyme powders of BoTEMO (crude enzyme powders prepared in accordance with the method of Example 5) and 0.02 g of lyophilized crude enzyme powder of glucose dehydrogenase (15 U/mg), and 1-3 g/L of omeprazole thioether/lansoprazole thioether/pantoprazole thioether/rabeprazle thioether/ilaprazole thioether, 10% (v/v) of methanol, 0.2 mmol/L of NADP^+ and 10 g/L of glucose were added. […] Then, the residue was dissolved in 0.5 ml of isopropanol, and the solution was analyzed in accordance with the method of Example 7 for measuring the conversion of reaction and the ee value of product. […]

In assay [3] the test system is BoTEMO-M1. Description: Asymmetric oxidation of lansoprazole thioether by BoTEMO-M1. In kind it is biochemical, Bradyrhizobium oligotrophicum ECU1212. The note with it: 10 g/L substrate, 25° C., 24 h. The method, then: (§1) To 100 ml Tris-HCl buffer (100 mmol/L, pH 9.0) was added 1 g of lyophilized crude enzyme powders of BoTEMO-M1 and 0.2 g crude enzyme of glucose dehydrogenase. Lansoprazole thioether, methanol, NADP^+ and glucose were added to the final concentrations of 10 g/L, 10% (v/v), 0.2 mmol/L and 15 g/L, respectively. The reaction was stirred at 25° C. and 180 rpm for 24 h. When the lansoprazole thioether was asymmetrically catalytically oxidized to (R)-lansoprazole, the resultant conversion of the reaction was above 99%, and the ee value of product was above 99% (R).
as §1, with “To 2 L” for “To 100 ml”, “added 20” for “added 1”, “g” for “g of”, “and 4” for “and 0.2”, “of” for “of the”, “(R). Separation by extraction gave […] of the product (R)-lansoprazole, and the yield was 86%.” for “(R).”

The subject of assay [4] is BoTEMO-M2. The experiment in a line: Asymmetric oxidation of lansoprazole thioether by BoTEMO-M2. The assay is classed as biochemical, Bradyrhizobium oligotrophicum ECU1212. To be noted: BoTEMO-M2 powders in 100 ml, 3 g/L substrate, 25° C., 24 h. The method, then: To 100 ml Tris-HCl buffer (100 mmol/L, pH 9.0) was added lyophilized crude enzyme powders of BoTEMO-M2 and 0.2 g crude enzyme of glucose dehydrogenase. Lansoprazole thioether, methanol, NADP^+ and glucose were added to the final concentrations of 3 g/L, 10% (v/v), 0.2 mmol/L and 5.4 g/L, respectively. The reaction was stirred at 25° C. and 180 rpm for 24 h. When the lansoprazole thioether was asymmetrically catalytically oxidized to (R)-lansoprazole, the resultant conversion of the reaction was above 99%, and the ee value of product was above 99% (R).

Assay [5] deals with engineered cyclohexanone monooxygenase (CHMO). The note with it: substrate loading 1.5 g/L, after 17 h; cited from earlier work.

With `Cc1c(OCC(F)(F)F)ccnc1CSc1nc2ccccc2[nH]1` [lansoprazole thioether], the conversion rate result in assay [1] is reported as “up to 80%”. Further, the conversion of reaction result in assay [2] and in assay [3] (20 g BoTEMO-M1 powders in 2 L) was “above 99%” in each case. Also, the “conversion of the reaction” value in assay [3] (1 g BoTEMO-M1 powders in 100 ml) and in assay [4] was “above 99%” in each case. Besides, in assay [5], the conversion is 1.2%.
